Data on 22 molecules can be found in patent US7294635B2 (Portola Pharmaceuticals, Inc., priority 2003, dated 2007).

In this assay the test system is ADP-induced human platelet aggregation. As to the kind of experiment: Inhibition of ADP-mediated platelet aggregation in vitro using platelet-rich plasma (PRP assay). The format is cell-based. To be noted: 5 min; human platelet-rich plasma, 2 μM ADP, 96-well microtiter, OD 650 nm at 5 min; read-out: Activity in the PRP assay. As to the method:
This Example Provides an Assay for the Inhibition of ADP-Mediated Platelet Aggregation In Vitro Using Platelet-Rich Plasma (PRP)
Platelet-rich plasma (PRP) is prepared by centrifugation at 160×g for 20 minutes at room temperature. PRP is collected, and the platelet concentration is determined using a Coulter counter or hemocytometer (platelet concentration should be 2-4×10^8 platelets per mL).
Inhibition of ADP-dependent aggregation is preferably determined in 96-well flat-bottom microtiter plates using a microtiter plate shaker and plate reader similar to the procedure described by Frantantoni et al., Am. J. Clin. Pathol. […] All steps are performed at room temperature. The total reaction volume of 0.2 mL/well includes: PRP (˜6×10^7 total platelets in the presence of plasma), serial dilutions of test compounds (buffer for control wells) in 0.6% DMSO. After about 5 minutes preincubation at room temperature, ADP is added to a final concentration of 2 μM which induces submaximal aggregation. Buffer is added instead of ADP to one set of control wells (ADP-control). The OD of the samples is then determined at 650 nm using a microtiter plate reader (Softmax, Molecular Devices, Menlo Park, Calif.) resulting in the 0 minute reading. The plates are then agitated for 5 min on a microtiter plate shaker and the 5 minute reading is obtained in the plate reader. Aggregation is calculated from the decrease of OD at 650 nm at t=5 minutes compared to t=0 minutes and is expressed as % of the decrease in the ADP control samples after correcting for changes in the unaggregated control samples.

Consider `CNc1cc2ccn(-c3ccc(NC(=O)NS(=O)(=O)c4ccc(Cl)s4)c(C)n3)c(=O)c2cc1F` [Example 55, 5-chloro-N-[({6-[7-fluoro-6-(methylamino)-1-oxoisoquinolin-2(1H)-yl]-2-methylpyridin-3-yl}amino)carbonyl]thiophene-2-sulfonamide], for which the IC50 was below 10 µM.
For `CNc1cc2ccn(-c3ccc(NC(=O)NS(=O)(=O)c4ccc(Br)s4)cc3)c(=O)c2cc1F` [Example 28, 5-bromo-N-[({4-[7-fluoro-6-(methylamino)-1-oxoisoquinolin-2(1H)-yl]phenyl}amino)carbonyl]thiophene-2-sulfonamide] the value was below 10 µM.
In the case of `CNc1cc2ccn(-c3ccc(NC(=O)NS(=O)(=O)c4ccc(OC)s4)cc3)c(=O)c2cc1F` [Example 34], the IC50 is below 10 µM.
For the molecule `CCc1cc(-n2ccc3cc(NC)c(F)cc3c2=O)ccc1NC(=O)NS(=O)(=O)c1ccc(Cl)s1` [Example 81, 5-chloro-N-[({2-ethyl-4-[7-fluoro-6-(methylamino)-1-oxoisoquinolin-2(1H)-yl]phenyl}amino)carbonyl]thiophene-2-sulfonamide], the IC50 is below 10 µM.
`CCc1cc(NC(=O)NS(=O)(=O)c2ccc(Cl)s2)ccc1-n1ccc2cc(NC)c(F)cc2c1=O` [Example 73, 5-chloro-N-[({3-ethyl-4-[7-fluoro-6-(methylamino)-1-oxoisoquinolin-2(1H)-yl]phenyl}amino)carbonyl]thiophene-2-sulfonamide]: the IC50 lay within 10 to 30 µM.
In the case of `CNc1cc2ccn(-c3ccc(NC(=O)NS(=O)(=O)c4ccc(Cl)s4)c(Cl)c3)c(=O)c2cc1F` [Example 103, 5-chloro-N-[({2-chloro-4-[7-fluoro-6-(methylamino)-1-oxoisoquinolin-2(1H)-yl]phenyl}amino)carbonyl]thiophene-2-sulfonamide] it was below 10 µM; in that of `CNc1cc2ccn(-c3ccc(NC(=O)NS(=O)(=O)c4ccc(Cl)s4)c(OCCOC)c3)c(=O)c2cc1F` [Example 91, 5-chloro-N-({[4-[7-fluoro-6-(methylamino)-1-oxoisoquinolin-2(1H)-yl]-2-(2-methoxyethoxy)phenyl]amino}carbonyl)thiophene-2-sulfonamide], below 10 µM.
For `CNc1cc2ccn(-c3ccc(NC(=O)NS(=O)(=O)c4ccc(Cl)s4)cc3C#N)c(=O)c2cc1F` [Example 67, 5-chloro-N-[({3-cyano-4-[7-fluoro-6-(methylamino)-1-oxoisoquinolin-2(1H)-yl]phenyl}amino)carbonyl]thiophene-2-sulfonamide] the value was 10 to 30 µM.
For `CNc1cc2ccn(-c3ccc(NC(=O)NS(=O)(=O)c4sccc4C)cc3)c(=O)c2cc1F` [Example 41] the value was 10 to 30 µM; for `CNc1cc2ccn(-c3ccc(NC(=O)NS(=O)(=O)c4ccc(Cl)s4)cc3COC(C)=O)c(=O)c2cc1F` [Example 62, 5-[({[(5-chlorothien-2-yl)sulfonyl]amino}carbonyl)amino]-2-[7-fluoro-6-(methylamino)-1-oxoisoquinolin-2(1H)-yl]benzyl acetate], 10 to 30 µM.
Turning to `CNc1cc2ccn(-c3cc(C)c(NC(=O)NS(=O)(=O)c4ccc(Cl)s4)c(C)c3)c(=O)c2cc1F` [Example 96, 5-chloro-N-[({4-[7-fluoro-6-(methylamino)-1-oxoisoquinolin-2(1H)-yl]-2,6-dimethylphenyl}amino)carbonyl]thiophene-2-sulfonamide], the IC50 was below 10 µM.
In the case of `CNc1cc2ccn(-c3ccc(NC(=O)NS(=O)(=O)c4ccc(Cl)s4)c(OCCO)c3)c(=O)c2cc1F` [Example 83, 5-chloro-N-({[4-[7-fluoro-6-(methylamino)-1-oxoisoquinolin-2(1H)-yl]-2-(2-hydroxyethoxy)phenyl]amino}carbonyl)thiophene-2-sulfonamide] it was below 10 µM.
For `CNc1cc2ccn(-c3ccc(NC(=O)NS(=O)(=O)c4ccc(Cl)s4)c(C(F)(F)F)c3)c(=O)c2cc1F` [Example 97, 5-chloro-N-({[4-[7-fluoro-6-(methylamino)-1-oxoisoquinolin-2(1H)-yl]-2-(trifluoromethyl)phenyl]amino}carbonyl)thiophene-2-sulfonamide] the value was below 10 µM.
For `CNc1cc2ccn(-c3cc(C)c(NC(=O)NS(=O)(=O)c4ccc(Cl)s4)c(C(=O)OC)c3)c(=O)c2cc1F` [Example 101, methyl 2-[({[(5-chlorothien-2-yl)sulfonyl]amino}carbonyl)amino]-5-[7-fluoro-6-(methylamino)-1-oxoisoquinolin-2(1H)-yl]-3-methylbenzoate] the value was below 10 µM; for `CCOC(=O)c1cc(NC(=O)NS(=O)(=O)c2ccc(Cl)s2)ccc1-n1ccc2cc(NC)c(F)cc2c1=O` [Example 65, ethyl 5-[({[(5-chlorothien-2-yl)sulfonyl]amino}carbonyl)amino]-2-[7-fluoro-6-(methylamino)-1-oxoisoquinolin-2(1H)-yl]benzoate], 10 to 30 µM; for `CNc1c(F)cc2c(=O)n(-c3ccc(NC(=O)NS(=O)(=O)c4ccc(Cl)s4)cc3)ccc2c1Br` [Example 109, N-[({4-[5-bromo-7-fluoro-6-(methylamino)-1-oxoisoquinolin-2(1H)-yl]phenyl}amino)carbonyl]-5-chlorothiophene-2-sulfonamide], above 30 µM.
With `CNc1cc2ccn(-c3ccc(NC(=O)NS(=O)(=O)c4ccc(Cl)s4)c(C)c3)c(=O)c2cc1F` [Example 53, 5-chloro-N-[({4-[7-fluoro-6-(methylamino)-1-oxoisoquinolin-2(1H)-yl]-2-methylphenyl}amino)carbonyl]thiophene-2-sulfonamide], the IC50 was below 10 µM.
For `CNc1c(F)cc2c(=O)n(-c3ccc(NC(=O)NS(=O)(=O)c4ccc(Cl)s4)cc3)ccc2c1C#N` [Example 118, 5-chloro-N-[({4-[5-cyano-7-fluoro-6-(methylamino)-1-oxoisoquinolin-2(1H)-yl]phenyl}amino)carbonyl]thiophene-2-sulfonamide] the value was 10 to 30 µM.
For `O=C(Nc1ccc(-n2ccc3cc(NC4CC4)c(F)cc3c2=O)cc1)NS(=O)(=O)c1ccc(Cl)s1` [Example 13, 5-chloro-N-[({4-[6-(cyclopropylamino)-7-fluoro-1-oxoisoquinolin-2(1H)-yl]phenyl}amino)carbonyl]thiophene-2-sulfonamide], the IC50 fell in the range of 10 to 30 µM.
For the molecule `CNc1cc2ccn(-c3ccc(NC(=O)NS(=O)(=O)c4ccc(Cl)s4)c(C(=O)O)c3)c(=O)c2cc1F` [Example 99, 2-[({[(5-chlorothien-2-yl)sulfonyl]amino}carbonyl)amino]-5-[7-fluoro-6-(methylamino)-1-oxoisoquinolin-2(1H)-yl]benzoic acid], the IC50 is below 10 µM.
As for `CNc1cc2ccn(-c3ccc(NC(=O)NS(=O)(=O)c4ccc(Cl)s4)c(C(C)=O)c3)c(=O)c2cc1F` [Example 88, N-[({2-acetyl-4-[7-fluoro-6-(methylamino)-1-oxoisoquinolin-2(1H)-yl]phenyl}amino)carbonyl]-5-chlorothiophene-2-sulfonamide], the IC50 was below 10 µM.
In the case of `CNc1cc2ccn(-c3ccc(NC(=O)NS(=O)(=O)c4ccc(Cl)s4)cc3C)c(=O)c2cc1F` [Example 52, 5-chloro-N-[({4-[7-fluoro-6-(methylamino)-1-oxoisoquinolin-2(1H)-yl]-3-methylphenyl}amino)carbonyl]thiophene-2-sulfonamide] it was below 10 µM.
